Results reported in patent US7144867B2, “Anticancer glycoside compounds” (priority 2004, dated 2006).
≈ marks a conversion by molar mass, not a printed value.

Assays:
[1] = system: angiogenesis in the animal; assay: Treatment of animals, anti-angiogenic evaluation (Example 6); assay type: in vivo; conditions: contemplated; range of appropriate doses
Experimental: Frondoside A or B is evaluated for anti-angiogenic (e.g., for research, drug screening or therapeutic purposes) in live animals. Animals (e.g., having or modeling a disease characterized by unwanted angiogenesis) are treated with a range of appropriate doses of Frondoside A or B. Exemplary dosages and dosage schedules include, but are not limited to, those described herein.

[2] = system: HUVEC (human umbilical vein endothelial cells); assay: Angiogenesis, tube formation on Matrigel, Frondoside B (Example 5); assay type: cell-based; conditions: concentrations in the range of 1 μM and greater; contemplated
Experimental: (§1) Test Substance and Concentration.
Cell Line and Culture Media. […] The culture medium used is Endothelial Cell Growth Medium with 10% fetal bovine serum, which is supplemented with 1% Antibiotic-Antimycotic.
Evaluation of anti-proliferation for test substances. Matrigel matrix is thawed, kept on ice at 4° C. and 50 μL transferred to each well of a 96-microwell tissue culture plate. The plate is incubated at 37° C. for at least one hour to allow the matrix solution to solidify before treatment.
(§2) Aliquots of 200 μl of (HUVEC) suspension (about 1.5×10^4 cells/well) are placed in 96-well microtiter plate. Two microliters of compound test solution or vehicle (40% DMSO) is then added per well in duplicate and incubated at 5% CO2 at 37° C. for 18 hours. The final concentration of DMSO is 0.4%. […] Failure to form continuous networks between cell bodies in the presence of test substance is photographed and scored as to the extent of tube disruption at a magnification of 40×. […] The minimum inhibitory concentration (MIC) is calculated to assess the effect of the test substance on angiogenesis.

cancer cells = assay: Anti-cancer / apoptotic promoting activity, method not described
[3] = system: HUVEC (human umbilical vein endothelial cells); assay: Angiogenesis, tube formation on Matrigel; assay type: cell-based
Experimental: as §1
Cell Line and Culture Media.
Evaluation of anti-proliferation for test substances. Matrigel matrix was thawed, kept on ice at 4° C. and 50 μL transferred to each well of a 96-microwell tissue culture plate. The plate was incubated at 37° C. for at least one hour to allow the matrix solution to solidify before treatment.
as §2, with “cells/well) were” for “cells/well) are”, “DMSO) was” for “DMSO) is”, “DMSO was” for “DMSO is”, “substance was” for “substance is”, “(MIC) was” for “(MIC) is”

[4] = system: DLD-1 (human colon adenocarcinoma); assay: cells; conditions: for Percent Growth (Mean ± SEM, n = 2): 72-hour
Experimental: Test Substance and Concentration. Frondoside A (CBR-24) was dissolved in 100% DMSO and then diluted with sterile distilled water to obtain initial working solutions of 10000, 1000, 100, 10, and 1 μM in 40% DMSO. A 100-fold dilution was further made in culture media to generate final assay concentration of 100, 10, 1, 0.1 and 0.01 μM in 0.4% of DMSO.
Cell Line and Culture Media. The tumor cell line DLD-1 (human colon adenocarcinoma), obtained from American Type Culture Collection (ATCC CCL-221), was incubated in 95% air-5% CO2 gas mixture at 37° C. The culture medium used was RPMI 1640 with 10% fetal bovine serum, which was supplemented with 1% Antibiotic-Antimycotic.
(§3) Evaluation of anti-proliferation for test substances. Aliquots of 100 μl of cell suspension (about 2.5×10^3 cells/well) were placed in 96-well microtiter plates in an atmosphere of 5% CO2 at 37° C. […] Thus, the final concentration of DMSO was 0.4%. The Frondoside A was evaluated for possible inhibitory effects on cell proliferation at concentrations of 100, 10, 1, 0.1 and 0.01 μM. At the end of incubation, 20 μl of 90% alamarBlue reagent was added to each well for another 6 hour incubation before detection of cell viability by fluorescent intensity. Fluorescent intensity was measured using a Spectrafluor Plus plate reader with excitation at 530 nm and emission at 590 nm.
(§4) Determination of IC50, TGI and LC50. The measured results were calculated by the following formula: PG(%)=100%×(Mean Ftest−Mean Ftime0)/(Mean Fctrl−Mean Ftime0) If (Mean Ftest−Mean Ftime0)<0, then PG (%)=100%×(Mean Ftest−Mean Ftime0)/(Mean Ftime0−Mean Fblank) Where: • PG: percent growth • Mean Ftime0=The average of 2 measured fluorescent intensities of reduced alamarBlue at the time just before exposure of cells to the test substance. • Mean Ftest=The average of 2 measured fluorescent intensities of alamarBlue after 72-hour exposure of cells to the test substance. • Mean Fctrl=The average of 2 measured fluorescent intensities of alamarBlue after 72-hour incubation without the test substance. • Mean Fblank=The average of 2 measured fluorescent intensities of alamarBlue in medium without cells after 72-hour incubation.

[5] = system: PC-3 (human prostate adenocarcinoma); assay: cells; conditions: for Percent Growth (Mean ± SEM, n = 2): 72-hour
Experimental: Test Substance and Concentration. Frondoside A (FAS) was dissolved in 100% DMSO and then diluted with sterile distilled water to obtain initial working solutions of 1000, 300, 100, 30, and 10 μM in 40% DMSO. […]
Cell Line and Culture Media. The tumor cell line PC-3 (human prostate adenocarcinoma), obtained from American Type Culture Collection (ATCC CRL-1435), was incubated in air atmosphere of 5% CO2 at 37° C. The culture medium used was F-12K Nutrient Mixture (Kaighn's Modification) with 3% fetal bovine serum, which was supplemented with 1% Antibiotic-Antimycotic.
as §3, with “of” for “of 100,”, “10, 3,” for “10,”, “1, 0.3 and” for “1,”, “0.1” for “0.1 and 0.01”, “6-hour” for “6 hour”
as §4, with “was” for “were”

In the case of “3 beta-O-{3-O-methyl-beta-D-glucopyranosyl-(1→3)-O-beta-D-6-sulfonatoglucopyranosyl-(1→4)-O-[beta-D-xylopyranosyl-(1→2)]-O-beta-D-quinovopyranosyl-(1→2)-O-beta-D-4-sulfonatoxylopyranosyl}-holost-7-ene sodium (or potassium) salt [Frondoside B]”, the “angiogenesis in the animal” value [1] is reported as “inhibits angiogenesis”, the “inhibition of tube formation relative to the vehicle-treated controls” value [2] is reported as “significant inhibition of tube formation” and the anti-cancer activity (cancer cells; no test described) is reported as “showed anti-cancer activity”. The “apoptotic promoting activity in cancer cells” value (cancer cells; no test described for Frondoside B) was “apoptotic promoting activity”.

For `Cc1ccc(C(=O)Nc2ccc(S(=O)(=O)O)c3cc(S(=O)(=O)O)cc(S(=O)(=O)O)c23)cc1NC(=O)c1cccc(NC(=O)Nc2cccc(C(=O)Nc3cc(C(=O)Nc4ccc(S(=O)(=O)O)c5cc(S(=O)(=O)O)cc(S(=O)(=O)O)c45)ccc3C)c2)c1` [Suramin, reference compound], the “inhibition of tube formation, standard reference agent” value ([3]; 10 μM) was “significant inhibition”, the inhibition at 0.3 µM ([3]; Homo sapiens, HUVEC, 0.3 μM, 18 hours, read-out: %, Inhibition of the total tube length (Mean ± SEM, n = 2)) was -1 ± 8% and the inhibition at 1 µM ([3]; Homo sapiens, HUVEC, 1 μM, 18 hours, read-out: %, Inhibition of the total tube length (Mean ± SEM, n = 2)) was -1 ± 7%. It also gave an inhibition at 3 µM ([3]; Homo sapiens, HUVEC, 3 μM, 18 hours, read-out: %, Inhibition of the total tube length (Mean ± SEM, n = 2)) of 20 ± 8%, an inhibition at 10 µM ([3]; Homo sapiens, HUVEC, 10 μM, 18 hours, read-out: %, Inhibition of the total tube length (Mean ± SEM, n = 2)) of 74% and an inhibition at 30 µM ([3]; Homo sapiens, HUVEC, 30 μM, 18 hours, read-out: %, Inhibition of the total tube length (Mean ± SEM, n = 2)) of 100%. For the same compound, the “MIC (Minimum Inhibitory Concentration)” value ([3]; tube formation, significant inhibition ≧30%) was 10 µM (≈ 13 µg/mL).

With `CO[C@@]12[C@H](COC(N)=O)C3=C(C(=O)C(C)=C(N)C3=O)N1C[C@@H]1N[C@@H]12` [Mitomycin, reference compound] the “Percent Growth (Mean ± SEM, n = 2)” value ([4]; DLD-1, 0.001 μM) was 96 ± 5%, the “Percent Growth (Mean ± SEM, n = 2)” value ([4]; DLD-1, 0.01 μM) was 83 ± 8% and the “Percent Growth (Mean ± SEM, n = 2)” value ([4]; DLD-1, 0.1 μM) was 66 ± 5%. For the same compound, the “Percent Growth (Mean ± SEM, n = 2)” value ([4]; DLD-1, 1 μM) was 31 ± 4%, the “Percent Growth (Mean ± SEM, n = 2)” value ([4]; DLD-1, 10 μM) was −11 ± 7% and the “TGI (Total Growth Inhibition)” value ([4]; DLD-1, semi-quantitative, nonlinear regression) was 5.5 µM. The IC50 ([4]; Homo sapiens, DLD-1, read-out: IC50 (50% Inhibition Concentration)) was 330 nM, the “activity of positive control on DLD-1 growth” value ([4]; at <10 μM) was “Significant activity” and the IC50 ([5]; Homo sapiens, read-out: IC50 (50% Inhibition Concentration)) was 130 nM. For the same compound, the “Percent Growth (Mean ± SEM, n = 2)” value ([5]; PC-3, 0.001 μM) was 103 ± 1%, the “Percent Growth (Mean ± SEM, n = 2)” value ([5]; PC-3, 0.01 μM) was 107 ± 1% and the “Percent Growth (Mean ± SEM, n = 2)” value ([5]; PC-3, 0.1 μM) was 35 ± 0%. For the same compound, the “Percent Growth (Mean ± SEM, n = 2)” value ([5]; PC-3, 1 μM) was 6 ± 1%, the “Percent Growth (Mean ± SEM, n = 2)” value ([5]; PC-3, 10 μM) was −77 ± 2% and the “TGI (Total Growth Inhibition)” value ([5]; PC-3, semi-quantitative, nonlinear regression) was 0.75 µM. The “activity of standard reference agent on PC-3 growth” value ([5]; at <10 mM) was “Significant activity”.
